Laboratory results published in patent US9725467B2, “Fluorinated benzenesulfonamides as inhibitors of carbonic anhydrase” (VILNIUS UNIVERSITY, priority 2012, dated 2017).

Tests used:
CA VII [1] = target: T1, CA VII (Homo sapiens, UniProt P43166); experiment: Fluorescent thermal shift assay (TSA), CA VII; format: binding; conditions: 37° C., pH 7.0, read-out: Dissociation constants Kd to CA VII (converted)
CA I [2] = target: T2, CA I (Homo sapiens, UniProt P00915); experiment: Fluorescent thermal shift assay (TSA), CA I; format: binding; conditions: 37° C., pH 7.0, read-out: Dissociation constants Kd to CA I (converted)
T2 sequence (P00915 whole entry): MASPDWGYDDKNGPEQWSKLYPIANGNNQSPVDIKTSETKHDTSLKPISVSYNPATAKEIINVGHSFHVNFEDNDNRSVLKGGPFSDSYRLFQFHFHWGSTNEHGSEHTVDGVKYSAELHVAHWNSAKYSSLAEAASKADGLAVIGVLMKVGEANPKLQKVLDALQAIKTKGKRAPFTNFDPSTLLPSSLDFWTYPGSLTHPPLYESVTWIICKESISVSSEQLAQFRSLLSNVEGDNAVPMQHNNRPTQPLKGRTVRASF

CA XII [3] = target: T3, CA XII (Homo sapiens, UniProt O43570); experiment: Fluorescent thermal shift assay (TSA), CA XII; format: binding; conditions: 37° C., pH 7.0, read-out: Dissociation constants Kd to CA XII (converted)
T3 sequence (O43570 30-291 limits assumed): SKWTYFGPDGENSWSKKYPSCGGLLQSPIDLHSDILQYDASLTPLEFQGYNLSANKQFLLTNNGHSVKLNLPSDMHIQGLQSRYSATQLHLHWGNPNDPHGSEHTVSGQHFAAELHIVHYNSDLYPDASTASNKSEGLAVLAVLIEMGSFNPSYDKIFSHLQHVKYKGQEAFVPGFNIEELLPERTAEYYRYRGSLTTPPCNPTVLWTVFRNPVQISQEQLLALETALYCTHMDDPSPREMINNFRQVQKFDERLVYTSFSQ

CA XIII [4] = target: T4, CA XIII (Homo sapiens, UniProt Q8N1Q1); experiment: Fluorescent thermal shift assay (TSA), CA XIII; format: binding; conditions: 37° C., pH 7.0, read-out: Dissociation constants Kd to CA XIII
T4 sequence (Q8N1Q1 whole entry): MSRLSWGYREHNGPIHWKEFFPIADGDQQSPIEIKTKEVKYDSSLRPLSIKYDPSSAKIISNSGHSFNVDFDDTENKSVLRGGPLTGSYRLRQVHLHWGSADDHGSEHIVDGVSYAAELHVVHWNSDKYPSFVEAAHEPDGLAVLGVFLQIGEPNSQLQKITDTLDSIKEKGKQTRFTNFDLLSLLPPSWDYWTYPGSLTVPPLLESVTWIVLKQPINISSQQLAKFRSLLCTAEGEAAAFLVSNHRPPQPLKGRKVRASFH

CA II [5] = target: T5, CA II (Homo sapiens, UniProt P00918); experiment: Fluorescent thermal shift assay (TSA), CA II; format: binding; conditions: 37° C., pH 7.0, read-out: Dissociation constants Kd to CA II (converted)
CA II [6] = target: T5, CA II; experiment: CO2 hydration assay (stopped-flow); format: biochemical
CA I [7] = target: T2, CA I; experiment: Isothermal titration calorimetry (ITC), CA I; format: binding; conditions: 37° C., pH 7.0, read-out: Dissociation constants Kd to CA I
CA XII [8] = target: T3, CA XII; experiment: Isothermal titration calorimetry (ITC), CA XII; format: binding; conditions: 37° C., pH 7.0, read-out: Dissociation constants Kd to CA XII
CA II [9] = target: T5, CA II; experiment: biochemical
CA VII [10] = target: T1, CA VII; experiment: Isothermal titration calorimetry (ITC), CA VII; format: binding; conditions: 37° C., pH 7.0, read-out: Dissociation constants Kd to CA VII
CA XIII [11] = target: T4, CA XIII; experiment: biochemical

T1 sequence (P43166 whole entry): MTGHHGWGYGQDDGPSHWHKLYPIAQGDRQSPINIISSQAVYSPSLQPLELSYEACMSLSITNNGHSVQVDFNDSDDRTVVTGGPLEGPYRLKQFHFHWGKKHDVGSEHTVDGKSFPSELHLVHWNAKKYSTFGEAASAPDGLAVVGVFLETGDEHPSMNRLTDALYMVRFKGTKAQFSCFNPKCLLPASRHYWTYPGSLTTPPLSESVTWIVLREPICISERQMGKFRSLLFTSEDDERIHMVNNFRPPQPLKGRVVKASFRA

| Kd (CA VII [1]) [nM] | Kd (CA I [2]) [nM] | Kd (CA XII [3]) [nM] | Kd (CA XIII [4]) [nM] | Kd (CA II [5]) [nM] | Ki (CA II [6]) [nM] | Kd (CA I [7]) [nM] | Kd (CA XII [8]) [nM] | Kd (CA II [9]) [nM] | Kd (CA VII [10]) [nM] | Kd (CA XIII [11]) [nM] | Compound |
| --- | --- | --- | --- | --- | --- | --- | --- | --- | --- | --- | --- |
| 8.3 | 67 | – | 1.3 | – | – | – | – | – | – | – | CNc1c(F)c(S(N)(=O)=O)c(F)c(F)c1S(=O)(=O)CCc1ccccc1 [Compound 9a, 3-(methylamino)-2,5,6-trifluoro-4-[(2-phenylethyl)sulfonyl]benzenesulfonamide] |
| 5 | 56 | – | 2.5 | – | – | – | – | – | – | – | NS(=O)(=O)c1c(F)c(F)c(S(=O)(=O)CCc2ccccc2)c(NCc2ccccc2)c1F [Compound 9c, 3-(benzylamino)-2,5,6-trifluoro-4-[(2-phenylethyl)sulfonyl]benzenesulfonamide] |
| 4 | 500 | 33 | 6.7 | 17 | – | – | – | – | – | – | NS(=O)(=O)c1c(F)c(F)c(S(=O)(=O)CCc2ccccc2)c(NCCc2ccccc2)c1F [Compound 9d, 3-[(2-phenylethy)amino]-2,5,6-trifluoro-4-[(2-phenylethyl)sulfonyl]benzenesulfonamide] |
| 667 | 58.8 | 167 | 8.3 | 22.2 | – | – | – | – | – | – | COc1cccc(OC)c1CNc1c(F)c(S(N)(=O)=O)c(F)c(F)c1S(=O)(=O)CCc1ccccc1 [Compound 9h, 3-[(2,6-dimethoxybenzyl)amino]-2,5,6-trifluoro-4-[(2-phenylethyl)sulfonyl]benzenesulfonamide] |
| 6.7 | 213 | 250 | 3.3 | 22.2 | – | – | – | – | – | – | COc1ccc(CNc2c(F)c(S(N)(=O)=O)c(F)c(F)c2S(=O)(=O)CCc2ccccc2)cc1OC [Compound 9i, 3-[(3,4-dimethoxybenzyl)amino]-2,5,6-trifluoro-4-[(2-phenylethyl)sulfonyl]benzenesulfonamide] |
| 5 | 500 | 17 | 5.6 | 50 | – | – | – | – | – | – | NS(=O)(=O)c1c(F)c(F)c(S(=O)(=O)CCc2ccccc2)c(NC23CC4CC(CC(C4)C2)C3)c1F [Compound 9j, 3-(1-adamantylamino)-2,5,6-trifluoro-4-[(2-phenylethyl)sulfonyl]benzenesulfonamide] |
| 10 | 1700 | 250 | 5.6 | 33 | – | – | – | – | – | – | NS(=O)(=O)c1c(F)c(F)c(S(=O)(=O)CCc2ccccc2)c(N[C@@H](c2ccccc2)[C@H](O)c2ccccc2)c1F [Compound 9n, 3-{[(1S,2R)-2-hydroxy-1,2-diphenylethyl]amino}-2,5,6-trifluoro-4-[(2-phenylethyl)sulfonyl]benzenesulfonamide] |
| 40 | 770 | 400 | 6.7 | 91 | – | – | – | – | – | – | NS(=O)(=O)c1c(F)c(F)c(S(=O)(=O)CCc2ccccc2)c(N[C@H](c2ccccc2)[C@@H](O)c2ccccc2)c1F [Compound 9o, 3-{[(1R,2S)-2-hydroxy-1,2-diphenylethyl]amino}-2,5,6-trifluoro-4-[(2-phenylethyl)sulfonyl]benzenesulfonamide] |
| 130 | 200 | – | 14 | – | – | 130 | 12.2 | 139 | 405 | 45.2 | NS(=O)(=O)c1c(F)c(F)c(S(=O)(=O)CCO)c(NCc2ccccc2)c1F [Compound 10a, 3-(benzylamino)-2,5,6-trifluoro-4-[(2-hydroxyethyl)sulfonyl]benzenesulfonamide] |
| 40 | 200 | 66.7 | 25 | 16.7 | – | – | – | – | – | – | COc1cccc(OC)c1CNc1c(F)c(S(N)(=O)=O)c(F)c(F)c1S(=O)(=O)CCO [Compound 10d, 3-[(2,6-dimethoxybenzyl)amino]-2,5,6-trifluoro-4-[(2-hydroxyethyl)sulfonyl]benzenesulfonamide] |
| 14.3 | 83.3 | 66.7 | 4.3 | 25 | – | – | – | – | – | – | COc1ccc(CNc2c(F)c(S(N)(=O)=O)c(F)c(F)c2S(=O)(=O)CCO)cc1OC [Compound 10e, 3-[(3,4-dimethoxybenzyl)amino]-2,5,6-trifluoro-4-[(2-hydroxyethyl)sulfonyl]benzenesulfonamide] |

The remaining lines, values behind:

| Compound | Kd (CA VII [1]) [nM] | Kd (CA I [2]) [nM] | Kd (CA XII [3]) [nM] | Kd (CA XIII [4]) [nM] | Kd (CA II [5]) [nM] | Ki (CA II [6]) [nM] | Kd (CA I [7]) [nM] | Kd (CA XII [8]) [nM] | Kd (CA II [9]) [nM] | Kd (CA VII [10]) [nM] | Kd (CA XIII [11]) [nM] |
| --- | --- | --- | --- | --- | --- | --- | --- | --- | --- | --- | --- |
| 3-{[4-(aminosulfonyl)-2,3,5,6-tetrafluorophenyl]thio}-[1,2,3]thiadiazolo[3,4-a]benzimidazole [Compound 2w] | 13 | 0.4 | 110 | – | – | – | – | – | – | – | – |
| CC(C)Nc1c(F)c(SCCc2ccccc2)c(F)c(F)c1S(N)(=O)=O [Compound 3a, 2-(isopropylamino)-3,5,6-trifluoro-4-[(2-phenylethyl)thio]benzenesulfonamide] | 130 | 3300 | 2900 | 67 | 500 | – | – | – | – | – | – |
| CC(Nc1c(F)c(SCCc2ccccc2)c(F)c(F)c1S(N)(=O)=O)c1ccccc1 (stereo not shown) [Compound 3d, 2-[(1-phenylethyl)amino]-3,5,6-trifluoro-4-[(2-phenylethyl)thio]benzenesulfonamide] | 4000 | 1700 | 5000 | 40 | 3300 | – | – | – | – | – | – |
| NS(=O)(=O)c1c(F)c(F)c(SCCc2ccccc2)c(F)c1NC1CCCCC1 [Compound 3f, 2-(cyclohexylamino)-3,5,6-trifluoro-4-[(2-phenylethyl)thio]benzenesulfonamide] | 170 | 25000 | 500 | 500 | 250 | – | – | – | – | – | – |
| NS(=O)(=O)c1c(F)c(F)c(SCCc2ccccc2)c(F)c1NC1Cc2ccccc2C1 [Compound 3l, 2-(2,3-dihydro-1H-inden-2-ylamino)-3,5,6-trifluoro-4-[(2-phenylethyl)thio]benzenesulfonamide] | 4000 | 5000 | 1700 | 100 | 3300 | – | – | – | – | – | – |
| NS(=O)(=O)c1c(F)c(F)c(SCCO)c(F)c1N[C@H]1CCc2ccccc21 [Compound 4e, 2-[(1S)-2,3-dihydro-1H-inden-1-ylamino]-3,5,6-trifluoro-4-[(2-hydroxyethyl)thio]benzenesulfonamide] | 1100 | 8300 | 1250 | 33.3 | 2780 | 500 | – | – | – | – | – |
| NS(=O)(=O)c1c(F)c(F)cc(F)c1NC1CCCCCCC1 [Compound 8a, 2-(cyclooctylamino)-3,5,6-trifluorobenzenesulfonamide] | 167 | 167 | 833 | 100 | 200 | – | – | – | – | – | – |
